Assay results taken from PubChem BioAssay AID1963976 (Molecular Pharmacology Branch, DTP, NCI, 2024).

Test system: 435261-313-R-J1-PDC tumor spheroid viability
Assay: Anticancer human tumor 435261-313-R-J1-PDC patient-derived colon adenocarcinoma cell line growth inhibition [PI3K]
Settings: spheroids with HUVEC and MSC; for IC50: curve of first compound; for viability, T/C: stronger effect = lower value
Summary of the method: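 High-throughput combination screen: PI3K inhibitors crossed with targeted small molecules on complex spheroids of tumor cells, HUVEC and MSCs at 37 degrees C, 5% CO2. Top concentration was at or near clinical Cmax (otherwise 10 microM), with half-log decrements.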

[1] = second compound 0.0316 µM, first compound 0.000316 µM
[2] = second compound 0.0316 µM, first compound 0.001 µM
[3] = second compound 0.0316 µM, first compound 0.00316 µM
[4] = second compound 0.0316 µM, first compound 0.01 µM
[5] = second compound 0.0316 µM, first compound 0.0316 µM
[6] = second compound 0.0316 µM, first compound 0.1 µM
[7] = second compound 0.1 µM, first compound 0.000316 µM
[8] = second compound 0.1 µM, first compound 0.001 µM
[9] = second compound 0.1 µM, first compound 0.00316 µM
[10] = second compound 0.1 µM, first compound 0.01 µM
[11] = second compound 0.1 µM, first compound 0.0316 µM
[12] = second compound 0.1 µM, first compound 0.1 µM
[13] = second compound 0.316 µM, first compound 0.000316 µM
[14] = second compound 0.316 µM, first compound 0.001 µM
[15] = second compound 0.316 µM, first compound 0.00316 µM
[16] = second compound 0.316 µM, first compound 0.01 µM
[17] = second compound 0.316 µM, first compound 0.0316 µM
[18] = second compound 0.316 µM, first compound 0.1 µM
[19] = second compound 1 µM, first compound 0.000316 µM
[20] = second compound 1 µM, first compound 0.001 µM
[21] = second compound 1 µM, first compound 0.00316 µM
[22] = second compound 1 µM, first compound 0.01 µM
[23] = second compound 1 µM, first compound 0.0316 µM
[24] = second compound 1 µM, first compound 0.1 µM
[25] = second compound 3.16 µM, first compound 0.000316 µM
[26] = second compound 3.16 µM, first compound 0.001 µM
[27] = second compound 3.16 µM, first compound 0.00316 µM
[28] = second compound 3.16 µM, first compound 0.01 µM
[29] = second compound 3.16 µM, first compound 0.0316 µM
[30] = second compound 3.16 µM, first compound 0.1 µM
[31] = second compound 10 µM, first compound 0.000316 µM
[32] = second compound 10 µM, first compound 0.001 µM
[33] = second compound 10 µM, first compound 0.00316 µM
[34] = second compound 10 µM, first compound 0.01 µM
[35] = second compound 10 µM, first compound 0.0316 µM
[36] = second compound 10 µM, first compound 0.1 µM
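Note: spheroids exposed to compounds for 7 days.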

CC(=O)c1c(C)c2cnc(Nc3ccc(N4CCNCC4)cn3)nc2n(C2CCCC2)c1=O + Cc1nc(NC(=O)N2CCCC2C(N)=O)sc1-c1ccnc(C(C)(C)C(F)(F)F)c1
IC50 (second compound 0.0316 µM): > 100 nM | IC50 (second compound 0.1 µM): > 100 nM | IC50 (second compound 0.316 µM): 0.316 nM | IC50 (second compound 1 µM): < 0.316 nM | IC50 (second compound 3.16 µM): < 0.316 nM | IC50 (second compound 10 µM): < 0.316 nM | viability, T/C [1]: 61.5% | viability, T/C [2]: 91.9% | viability, T/C [3]: 96.5% | viability, T/C [4]: 66% | viability, T/C [5]: 88.5% | viability, T/C [6]: 59.1% | viability, T/C [7]: 68% | viability, T/C [8]: 69.4% | viability, T/C [9]: 69.5% | viability, T/C [10]: 69.5% | viability, T/C [11]: 74.7% | viability, T/C [12]: 66.1% | viability, T/C [13]: 40.9% | viability, T/C [14]: 60.9% | viability, T/C [15]: 40.9% | viability, T/C [16]: 52.5% | viability, T/C [17]: 41.3% | viability, T/C [18]: 32.5% | viability, T/C [19]: 26.9% | viability, T/C [20]: 27.5% | viability, T/C [21]: 35.2% | viability, T/C [22]: 33.5% | viability, T/C [23]: 26.6% | viability, T/C [24]: 21.2% | viability, T/C [25]: 14.7% | viability, T/C [26]: 14.2% | viability, T/C [27]: 13.9% | viability, T/C [28]: 16.8% | viability, T/C [29]: 16.9% | viability, T/C [30]: 15.9% | viability, T/C [31]: 10.2% | viability, T/C [32]: 7.93% | viability, T/C [33]: 7.66% | viability, T/C [34]: 9.02% | viability, T/C [35]: 10.4% | viability, T/C [36]: 5.66%

CC(C)n1nc(-c2ccc3oc(N)nc3c2)c2c(N)ncnc21 + Cc1nc(NC(=O)N2CCCC2C(N)=O)sc1-c1ccnc(C(C)(C)C(F)(F)F)c1
IC50 (second compound 0.0316 µM): 26.3 nM | IC50 (second compound 0.1 µM): 20.2 nM | IC50 (second compound 0.316 µM): 3.58 nM | IC50 (second compound 1 µM): < 0.316 nM | IC50 (second compound 3.16 µM): < 0.316 nM | IC50 (second compound 10 µM): < 0.316 nM | viability, T/C [1]: 83.6% | viability, T/C [2]: 93% | viability, T/C [3]: 76.7% | viability, T/C [4]: 47.9% | viability, T/C [5]: 62% | viability, T/C [6]: 13.6% | viability, T/C [7]: 76.9% | viability, T/C [8]: 71.1% | viability, T/C [9]: 94.3% | viability, T/C [10]: 65.6% | viability, T/C [11]: 38.6% | viability, T/C [12]: 15.4% | viability, T/C [13]: 46.4% | viability, T/C [14]: 67.7% | viability, T/C [15]: 45.8% | viability, T/C [16]: 40% | viability, T/C [17]: 18.3% | viability, T/C [18]: 12.8% | viability, T/C [19]: 30.6% | viability, T/C [20]: 30.5% | viability, T/C [21]: 30.3% | viability, T/C [22]: 20.2% | viability, T/C [23]: 19.6% | viability, T/C [24]: 9.5% | viability, T/C [25]: 13.1% | viability, T/C [26]: 23.9% | viability, T/C [27]: 21.7% | viability, T/C [28]: 19.1% | viability, T/C [29]: 12.1% | viability, T/C [30]: 7.83% | viability, T/C [31]: 10.6% | viability, T/C [32]: 10.1% | viability, T/C [33]: 9.88% | viability, T/C [34]: 8.69% | viability, T/C [35]: 4.8% | viability, T/C [36]: 4.03%
